Experimental data as given in article PMC9045388, “Identification of a KPC Variant Conferring Resistance to Ceftazidime-Avibactam from ST11 Carbapenem-Resistant Klebsiella pneumoniae Strains” (Microbiology Spectrum, 2022).

Target: T1, KPC-2 (Klebsiella pneumoniae, UniProt Q9F663)
T1 construct: untagged, full gene in pCR-BluntII-Topo (pTOPO-KPC-2), expressed in E. coli TOP10; ion exchange and gel filtration
Assay: steady-state hydrolysis, UV-Vis at […] nm
Assay type: biochemical
Conditions: 100 mM sodium phosphate, pH 7.0

T1 sequence (Q9F663 25-293 limits assumed): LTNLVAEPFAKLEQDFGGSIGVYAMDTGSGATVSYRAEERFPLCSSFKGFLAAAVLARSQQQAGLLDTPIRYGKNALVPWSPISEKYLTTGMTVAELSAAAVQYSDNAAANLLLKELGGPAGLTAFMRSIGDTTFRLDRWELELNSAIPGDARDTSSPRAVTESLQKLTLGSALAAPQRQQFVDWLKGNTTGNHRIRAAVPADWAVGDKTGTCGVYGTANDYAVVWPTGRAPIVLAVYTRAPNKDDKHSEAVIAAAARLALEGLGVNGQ

`O=C(Cc1cccs1)N[C@@H]1C(=O)N2C(C(=O)O)=C(/C=C/c3ccc([N+](=O)[O-])cc3[N+](=O)[O-])CS[C@H]12` [nitrocefin] gave a Km of 17.9 µM.
